From US20040067853A1, “Sulfonamide derivative-containing agricultural and horticultural composition” (priority 2001, published 2004)

How the values were obtained:
Pyrenophora teres = experiment: Protective effect of Pyrenophora teres on barley seedlings (spray, protection value from lesion area ratio; Colby's equation for mixtures); type: in vivo
Procedure: (§1) Hereunder, the evaluation of each fungicide was carried out by converting the ratio into a protection value after measuring the lesion area ratio (in percentage). The protectin value was calculated by means of the equation as follows.
(§2) protection value=(1−(lesion area in the division treated with fungicide)/lesion area in the division not treated with fungicide))×100
(§3) An estimated protection value of a mixture of active ingredients was calculated according to the Colby's equation [R. S. Colby, Weeds 15, 20-22 (1967)] and compared with the experimental protection value.
(§4) wherein E is the estimated protection value (additive effect) which will be obtained when the active ingredients A and B are used in a mixture in concentrations a and b, respectively, x is the protection value obtained when the active ingredient A is used in a concentration a, and y is the protection value obtained when the active ingredient B is used in a concentration b. […] A protection value 0 means that the lesion area ratio of the plants in the test group is as large as that of the plants in the untreated control group. A protective value 100 means that the plants in the test group are free from the disease.
The supplied compound (that is, the compound to which number (No.) was attached in Table 1), and A (picoxystrobin), B (trifloxystrobin), C (pyraclostrobin), D (cresoxime methyl), E (epoxiconazole), F (flusilazole) and G (tebuconasole) shown in Table 31 were, alone or in a mixture form, dissolved into dimethylformamide (final concentration: 1% by weight). Thereto were added xylene (final concentration: 0.02% by weight) and Tween 20 (trade name) (final concentration: 0.02% by weight), and then the solution was diluted with water to have a desired effective component concentration (ppm). To this solution was added a spreading agent SINDAIN (trade name, made by Takeda Chemical Industries, Ltd.) containing 20% by weight of polyoxyethylene nonylphenyl ether and 12% by weight of calcium ligninsulfonate so as to have a final concentration of 0.05% by weight. Thus, a spray solution was prepared. The solution was sprayed, at a rate of 40 ml/pot, onto barley seedlings (cultural variety: Shiaga Hasseki No. 5) grown for 1 week in a greenhouse. After air drying, a suspension containing spores (5×10^5/ml) of Pyrenophora teres was sprayed and inoculated thereto at a rate of 2 ml/pot. After the inoculation, the seedlings were kept inside a high-humidity box having a temperature of 24° C. for 18 hours and then put into a room. After 9 days, the lesion area ratio on the treated leaves was investigated.

Alternaria mali = experiment: Prevention effect of Alternaria mali on apple seedlings (spray, protection value from lesion area ratio; Colby's equation for mixtures); type: in vivo
Procedure: as §1, §2, §3, §4
The supplied compound (that is, the compound to which number (No.) was attached in Table 1-29), and A (picoxystrobin), B (trifloxystrobin), and C (pyraclostrobin) shown in Table 30 were, alone or in a mixture form, dissolved into dimethylformamide (final concentration: 1% by weight). Thereto were added xylene (final concentration: 0.02% by weight) and Tween 20 (trade name) (final concentration: 0.02% by weight), and then the solution was diluted with water to have a desired effective component concentration (ppm). To this solution was added a spreading agent SINDAIN (trade name, made by Takeda Chemical Industries, Ltd.) containing 20% by weight of polyoxyethylene nonylphenyl ether and 12% by weight of calcium ligninsulfonate so as to have a final concentration of 0.05% by weight. Thus, a spray solution was prepared. The solution was sprayed, at a rate of 10 ml/pot, onto the apple seedlings (cultural variety: Star King Delicous) grown for 3 or 4 weeks in a greenhouse. After one day from the treatment, a suspension containing a 1% yeast extract, a 1% sucrose, and spores (5×10^5/ml) of Alternaria mali was sprayed and inoculated thereto at a rate of 1 ml/pot. After the inoculation, the trees were kept inside a high-humidity box having a temperature of 28° C. for 4 days. Thereafter, the lesion area ratio on the treated leaves was examined.

| SMILES | Lesion area ratio (%) (Pyrenophora teres; 5.0 ppm active ingredient) | Protection value (Pyrenophora teres; 5.0 ppm active ingredient) | Lesion area ratio (%) (Alternaria mali; 6.3 ppm active ingredient) | Protection value (Alternaria mali; 6.3 ppm active ingredient) | Lesion area ratio (%) (Alternaria mali; 25.0 ppm active ingredient) | Protection value (Alternaria mali; 25.0 ppm active ingredient) | Lesion area ratio (%) (Alternaria mali; 100.0 ppm active ingredient) | Protection value (Alternaria mali; 100.0 ppm active ingredient) | Lesion area ratio (%) (Pyrenophora teres; 0.2 ppm active ingredient) | Protection value (Pyrenophora teres; 0.2 ppm active ingredient) | other results |
| --- | --- | --- | --- | --- | --- | --- | --- | --- | --- | --- | --- |
| Fc1ccc([C@]2(Cn3cncn3)O[C@H]2c2ccccc2Cl)cc1 (racemic) [epoxiconazole, (2RS,3SR)-1-[3-(2-chlorophenyl)-2,3-epoxy-2-(4-fluorophenyl)propyl]-1H-1,2,4-triazole] | 15.0 | 70 | – | – | – | – | – | – | – | – | – |
| CCN(c1ccc(Cl)cc1[N+](=O)[O-])S(=O)(=O)c1ccc(C)cc1 [Compound No. 289, 4′-chloro-N-ethyl-2′-nitro-p-toluenesulfonanilide] | – | – | 3.5 | 93 | – | – | – | – | – | – | Lesion area ratio (%) (Alternaria mali; 0.4 ppm active ingredient): 19.8%; Protection value (Alternaria mali; 0.4 ppm active ingredient): 58; Lesion area ratio (%) (Alternaria mali; 1.6 ppm active ingredient): 19.5%; Protection value (Alternaria mali; 1.6 ppm active ingredient): 59; Lesion area ratio (%) (Pyrenophora teres; 0.5 ppm active ingredient): 17.5%; Protection value (Pyrenophora teres; 0.5 ppm active ingredient): 65; melting point: 132.5 to 134 °C |
| CO/N=C(/C(=O)OC)c1ccccc1COc1ccccc1C [cresoxime methyl] | 27.5 | 45 | – | – | – | – | – | – | – | – | – |
| C[Si](Cn1cncn1)(c1ccc(F)cc1)c1ccc(F)cc1 [flusilazole] | 25.0 | 50 | – | – | – | – | – | – | – | – | – |
| CO/C=C(/C(=O)OC)c1ccccc1COc1cccc(C(F)(F)F)n1 [picoxystrobin, methyl (E)-3-mthoxy-2-{2-[6-(trifluoromethyl)-2-pyridyloxymethyl]phenyl}acrylate] | – | – | 11.5 | 76 | 9.5 | 80 | 6.2 | 87 | 17.5 | 65 | – |
| COC(=O)N(OC)c1ccccc1COc1ccn(-c2ccc(Cl)cc2)n1 [pyraclostrobin, methyl N-{2-[1-(4-chlorophenyl)-1-H-pyrazol-3-yloxymethyl]phenyl}(N-methoxy)carbamate] | – | – | 11.0 | 77 | 11.0 | 77 | 3.7 | 92 | 12.5 | 75 | – |
| CC(C)(C)C(O)(CCc1ccc(Cl)cc1)Cn1cncn1 (centres unmarked) [tebuconasole] | 22.5 | 55 | – | – | – | – | – | – | – | – | – |
| CO/N=C(/C(=O)OC)c1ccccc1CO/N=C(\C)c1cccc(C(F)(F)F)c1 [trifloxystrobin, methyl-(E)-methoxyimino-{(E)-α-[1-(α,α,α-trifluoro-m-tolyl)ethylideneaminooxy]-o-tolyl}acetate] | – | – | 61.7 | 0 | 4.7 | 90 | 2.2 | 95 | 27.5 | 45 | – |
